These results are taken from US8338565B2, “Macrocyclic compounds for inhibition of tumor necrosis factor alpha” (Ensemble Therapeutics Corporation, priority 2008, dated 2012).

Numbered stars: 1 amine (or outer) side, 2 acyl side, 3 side chain; on linkers, the order of the positions; unused ones are H or OH. Bridge positions count the residues as written; N and C are the ends. Square brackets hold non-standard residues; d marks the D form. Peptide text beside a SMILES is read from it. Tartaroyl(2R,3R-(OAc)2) = CC(=O)O[C@@H](C(=O)[*:1])[C@@H](OC(C)=O)C(=O)[*:2]; Phe(4-COOH) = N[C@@H](Cc1ccc(C(=O)O)cc1)C(=O)O; Phe(4-tBu) = CC(C)(C)c1ccc(C[C@H](N)C(=O)O)cc1; Phe(2,4-Cl2) = N[C@@H](Cc1ccc(Cl)cc1Cl)C(=O)O; Bip = N[C@@H](Cc1ccc(-c2ccccc2)cc1)C(=O)O; dBip = N[C@H](Cc1ccc(-c2ccccc2)cc1)C(=O)O; dPhe(4-NH2) = Nc1ccc(C[C@@H](N)C(=O)O)cc1; Phe(4-Br) = N[C@@H](Cc1ccc(Br)cc1)C(=O)O; Phe(4-NH2) = Nc1ccc(C[C@H](N)C(=O)O)cc1; dAla(2-furyl) = N[C@H](Cc1ccco1)C(=O)O; d(hPhe) = N[C@H](CCc1ccccc1)C(=O)O; d3Pal = N[C@H](Cc1cccnc1)C(=O)O; Cha = N[C@@H](CC1CCCCC1)C(=O)O; d2Thi = N[C@H](Cc1cccs1)C(=O)O; Suc = O=C(CCC(=O)[*:2])[*:1]; GABA = NCCCC(=O)O; βAla = NCCC(=O)O

T1 sequence (P01375 77-233 limits assumed, species assumed): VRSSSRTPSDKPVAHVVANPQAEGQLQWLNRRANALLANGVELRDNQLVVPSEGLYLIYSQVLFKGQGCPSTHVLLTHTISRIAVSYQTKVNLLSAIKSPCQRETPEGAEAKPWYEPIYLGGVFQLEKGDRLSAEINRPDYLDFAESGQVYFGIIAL

One experiment addresses T1, TNFα / TNFα receptor (TNFα R1/Fc) (Homo sapiens, UniProt P01375).
T1 construct: purchased R&D Systems
Nature of the experiment: Inhibition of binding of TNFα to the TNFα receptor (plate ELISA competition). The settings on record: Activity (IC50, inhibition of TNFα binding to TNFα R1/Fc), Table 2. The method, boiled down:
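Compound dilutions were preincubated 30 min at RT with 8.33 nM TNFα R1/Fc in PBST with 2% DMSO, then added to wells coated with 15 nM TNFα for 30 min. Bound receptor was detected with HRP anti-human Fc and TMB, read as A450.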
Turning to `O=C1COc2ccc(cc2)C[C@H](C(=O)N[C@H](CCc2ccccc2)C(=O)O)NC(=O)[C@H](CCc2ccccc2)NC(=O)[C@@H](Cc2ccc(-c3ccccc3)cc2)NC(=O)[C@H](Cc2c[nH]c3ccccc23)N1` [Compound 737], the IC50 is < 10 µM.

The same experiment, now with this note: Table 2; read-out: Activity (IC50, inhibition of TNFα binding to TNFα R1/Fc).
On to `CC(=O)O[C@H]1C(=O)Nc2ccc(cc2)C[C@H](C(=O)O)NC(=O)[C@@H](CCc2ccccc2)NC(=O)[C@H](Cc2ccc(Cl)cc2Cl)NC(=O)[C@@H](Cc2cccs2)NC(=O)[C@@H]1OC(C)=O` [Compound 221] ([d2Thi][Phe(2,4-Cl2)][d(hPhe)][dPhe(4-NH2)]-OH; linker N-4 via Tartaroyl(2R,3R-(OAc)2)), for which the IC50 lay in the range of 30 to 100 µM.

Consider `CC(=O)O[C@H]1C(=O)Nc2ccc(cc2)C[C@H](C(=O)O)NC(=O)[C@@H](Cc2ccco2)NC(=O)[C@H](Cc2ccc(Br)cc2)NC(=O)[C@@H](Cc2ccccc2)NC(=O)[C@@H]1OC(C)=O` [Compound 160] ([dF][Phe(4-Br)][dAla(2-furyl)][dPhe(4-NH2)]-OH; linker N-4 via Tartaroyl(2R,3R-(OAc)2)), for which the IC50 lay within 30 to 100 µM.

Regarding `O=C1CCC(=O)N[C@H](Cc2cccs2)C(=O)N[C@@H](CC2CCCCC2)C(=O)N[C@H](Cc2ccccc2)C(=O)N[C@H](C(=O)O)Cc2ccc(cc2)N1` [Compound 84] ([d2Thi][Cha][dF][Phe(4-NH2)]-OH; linker N-4 via Suc), the IC50 was > 100 µM.

As for `NCCCC[C@H](NC(=O)[C@@H]1Cc2ccc(cc2)NC(=O)CCC(=O)N[C@H](CCc2ccccc2)C(=O)N[C@@H](Cc2ccc(-c3ccccc3)cc2)C(=O)N[C@H](Cc2ccccc2)C(=O)N1)C(=O)O` [Compound 295] ([d(hPhe)][Bip][dF][Phe(4-NH2)]K-OH; linker N-4 via Suc), the IC50 lay within 10 to 30 µM.

Consider `O=C1COc2ccc(cc2)C[C@@H](C(=O)O)NC(=O)[C@H](CCc2ccccc2)NC(=O)[C@@H](Cc2ccc(-c3ccccn3)cc2)NC(=O)[C@H](Cc2ccccn2)N1` [Compound 667], for which the IC50 was > 100 µM.

Take `O=C(O)CCNC(=O)[C@@H]1Cc2ccc(cc2)C(=O)N[C@H](CCc2ccccc2)C(=O)N[C@@H](Cc2ccc(-c3ccccc3)cc2)C(=O)N[C@H](Cc2ccccc2)C(=O)N1` [Compound 424] ([d(hPhe)][Bip][dF][Phe(4-COOH)][βAla]-OH; lactam N-4): the IC50 is < 10 µM.

As to `O=C1COc2ccc(cc2)C[C@H](C(=O)O)NC(=O)[C@H](Cc2ccccc2F)NC(=O)[C@@H](Cc2ccc(-c3ccccc3)cc2)NC(=O)[C@H](Cc2ccncc2)N1` [Compound 729], the IC50 was > 100 µM.

Regarding `O=C1CCC(=O)N[C@H](Cc2cccs2)C(=O)N[C@@H](Cc2ccc(-c3ccccc3)cc2)C(=O)N[C@@H](Cc2ccc(O)cc2)C(=O)N[C@H](C(=O)O)Cc2ccc(cc2)N1` [Compound 58] ([d2Thi][Bip]Y[Phe(4-NH2)]-OH; linker N-4 via Suc), the IC50 is > 100 µM.

Take `O=C1COc2ccc(cc2)C[C@@H](C(=O)O)NC(=O)[C@H](CCc2ccccc2)NC(=O)[C@@H](Cc2ccc(-c3ccccc3)cc2)NC(=O)[C@H](Cc2c[nH]c3ccccc23)N1` [Compound 734]: the IC50 was < 10 µM.

`O=C1COc2ccc(cc2)C[C@@H](C(=O)N[C@H](CCc2ccccc2)C(=O)O)NC(=O)[C@H](Cc2ccccc2F)NC(=O)[C@@H](Cc2ccc(-c3ccccc3)cc2)NC(=O)[C@H](Cc2ccncc2)N1` [Compound 742]: the IC50 is < 10 µM.

With `O=C(O)CCCNC(=O)[C@@H]1Cc2ccc(cc2)NC(=O)CCC(=O)N[C@H](Cc2ccccc2)C(=O)N[C@@H](Cc2ccc(-c3ccccc3)cc2)C(=O)N[C@H](CCc2ccccc2)C(=O)N1` [Compound 460] ([dF][Bip][d(hPhe)][Phe(4-NH2)][GABA]-OH; linker N-4 via Suc), the IC50 was > 100 µM.

For `O=C1CCC(=O)N[C@H](Cc2cccs2)C(=O)N[C@@H](Cc2ccc(-c3ccccc3)cc2)C(=O)N[C@H](Cc2cccnc2)C(=O)N[C@H](C(=O)O)Cc2ccc(cc2)N1` [Compound 51] ([d2Thi][Bip][d3Pal][Phe(4-NH2)]-OH; linker N-4 via Suc), the IC50 is > 100 µM.

As to `O=C1COc2ccc(cc2)C[C@@H](C(=O)N[C@H](CO)C(=O)O)NC(=O)[C@H](CCc2ccccc2)NC(=O)[C@@H](Cc2ccc(-c3ccccc3)cc2)NC(=O)[C@H](Cc2ccc(-c3ccccc3)cc2)N1` [Compound 571], the IC50 was < 10 µM.

As to `O=C(O)[C@@H]1Cc2ccc(cc2)NC(=O)[C@H](O)[C@@H](O)C(=O)N[C@H](Cc2cccs2)C(=O)N[C@H](Cc2ccc(-c3ccccc3)cc2)C(=O)N[C@@H](Cc2ccccc2)C(=O)N1` [Compound 274], the IC50 is > 100 µM.

Regarding `O=C1COc2ccc(cc2)C[C@@H](C(=O)N[C@H](Cc2ccc(O)cc2)C(=O)O)NC(=O)[C@H](CCc2ccccc2)NC(=O)[C@@H](Cc2ccc(-c3ccccc3)cc2)NC(=O)[C@H](Cc2ccc(-c3ccncc3)cc2)N1` [Compound 586], the IC50 was < 10 µM.

In the case of `O=C(O)[C@@H]1Cc2ccc(cc2)NC(=O)[C@H](O)[C@@H](O)C(=O)N[C@H](Cc2cccs2)C(=O)N[C@@H](Cc2ccc(C(F)(F)F)cc2)C(=O)N[C@H](Cc2ccccc2)C(=O)N1` [Compound 178], the IC50 was > 100 µM.

On to `N#Cc1ccc(C[C@H]2NC(=O)[C@H](O)[C@@H](O)C(=O)Nc3ccc(cc3)C[C@@H](C(=O)O)NC(=O)[C@@H](Cc3ccccc3)NC(=O)[C@H](Cc3ccc(-c4ccccc4)cc3)NC2=O)cc1` [Compound 260], for which the IC50 lay in the range of 30 to 100 µM.

With `O=C1COc2ccc(cc2)C[C@@H](C(=O)O)NC(=O)[C@H](Cc2ccc(F)cc2)NC(=O)[C@@H](Cc2ccc(-c3ccccc3)cc2)NC(=O)[C@H](Cc2cccs2)N1` [Compound 627], the IC50 was > 100 µM.

In the case of `O=C(O)C[C@H](NC(=O)[C@@H]1Cc2ccc(cc2)NC(=O)CCC(=O)N[C@H](Cc2cccs2)C(=O)N[C@@H](Cc2ccc(-c3ccccc3)cc2)C(=O)N[C@H](Cc2ccccc2)C(=O)N1)C(=O)O` [Compound 27] ([d2Thi][Bip][dF][Phe(4-NH2)]D-OH; linker N-4 via Suc), the IC50 is > 100 µM.

Regarding `O=C1CCC(=O)N[C@H](CCc2ccccc2)C(=O)N[C@@H](Cc2ccc(-c3ccccc3)cc2)C(=O)N[C@H](Cc2ccccc2)C(=O)N[C@H](C(=O)N[C@@H](Cc2ccc(O)cc2)C(=O)O)Cc2ccc(cc2)N1` [Compound 471] ([d(hPhe)][Bip][dF][Phe(4-NH2)]Y-OH; linker N-4 via Suc), the IC50 was < 10 µM.

As to `O=C1CCNC(=O)c2ccc(cc2)C[C@@H](C(=O)O)NC(=O)[C@H](Cc2ccccc2)NC(=O)[C@@H](Cc2ccc(-c3ccccc3)cc2)NC(=O)[C@@H](CCc2ccccc2)N1` [Compound 466] ([βAla][d(hPhe)][dBip]F[Phe(4-COOH)]-OH; lactam N-5), the IC50 was > 100 µM.

Regarding `O=C1COc2ccc(cc2)C[C@@H](C(=O)O)NC(=O)[C@@H](CCc2ccccc2)NC(=O)[C@H](Cc2ccc(-c3ccccc3)cc2)NC(=O)[C@@H](Cc2ccc(O)cc2)N1` [Compound 521], the IC50 is > 100 µM.

On to `O=C1COc2ccc(cc2)C[C@@H](C(=O)N[C@@H](Cc2ccccc2)C(=O)O)NC(=O)[C@H](CCc2ccccc2)NC(=O)[C@@H](Cc2ccc(-c3ccccc3)cc2)NC(=O)[C@H](Cc2ccc(-c3ccncc3)cc2)N1` [Compound 581], for which the IC50 was < 10 µM.

Consider `N#Cc1ccccc1C[C@H]1NC(=O)[C@H](Cc2ccc(-c3ccccc3)cc2)NC(=O)[C@@H](Cc2cccs2)NC(=O)[C@H](O)[C@@H](O)C(=O)Nc2ccc(cc2)C[C@@H](C(=O)O)NC1=O` [Compound 285], for which the IC50 was in the range of 30 to 100 µM.

As to `O=C(O)CNC(=O)[C@@H]1Cc2ccc(cc2)OCC(=O)N[C@@H](Cc2cccs2)C(=O)N[C@H](Cc2ccc(-c3ccccc3)cc2)C(=O)N[C@@H](Cc2ccccc2)C(=O)N1` [Compound 383], the IC50 was < 10 µM.

For the molecule `O=C1COc2ccc(cc2)C[C@@H](C(=O)O)NC(=O)[C@@H](CCc2ccccc2)NC(=O)[C@H](Cc2ccc(-c3ccccc3)cc2)NC(=O)[C@@H](Cc2ccc(F)c(F)c2)N1` [Compound 524], the IC50 fell in the range of 10 to 30 µM.

Consider `O=C1COc2ccc(cc2)C[C@@H](C(=O)O)NC(=O)[C@H](Cc2ccccc2)NC(=O)[C@@H](Cc2ccc(C(F)(F)F)cc2)NC(=O)[C@H](Cc2cccs2)N1` [Compound 397], for which the IC50 is > 100 µM.

Regarding `O=C1CCC(=O)N[C@H](Cc2cccs2)C(=O)N[C@@H](Cc2ccc(-c3ccccc3)cc2)C(=O)N[C@H](CCc2ccccc2)C(=O)N[C@H](C(=O)N[C@H](Cc2ccccc2)C(=O)O)Cc2ccc(cc2)N1` [Compound 444] ([d2Thi][Bip][d(hPhe)][Phe(4-NH2)][dF]-OH; linker N-4 via Suc), the IC50 is 30 to 100 µM.

As to `O=C(NCS(=O)(=O)O)[C@@H]1Cc2ccc(cc2)NC(=O)[C@H](O)[C@@H](O)C(=O)N[C@H](Cc2cccs2)C(=O)N[C@@H](Cc2ccc(-c3ccccc3)cc2)C(=O)N[C@H](CCc2ccccc2)C(=O)N1` [Compound 593], the IC50 was < 10 µM.

`O=C1COc2ccc(cc2)C[C@@H](C(=O)O)NC(=O)[C@H](Cc2ccc(-c3ccncc3)cc2)NC(=O)[C@@H](Cc2ccc(-c3ccccc3)cc2)NC(=O)[C@H](Cc2cccs2)N1` [Compound 634]: the IC50 was < 10 µM.

For the molecule `O=C(O)CN(Cc1ccccc1)C(=O)[C@@H]1Cc2ccc(cc2)OCC(=O)N[C@@H](Cc2cccs2)C(=O)N[C@H](Cc2ccc(-c3ccccc3)cc2)C(=O)N[C@@H](Cc2ccccc2)C(=O)N1` [Compound 392], the IC50 is 10 to 30 µM.

For the molecule `CC(C)(C)c1ccc(C[C@@H]2NC(=O)[C@@H](Cc3cccs3)NC(=O)CCC(=O)Nc3ccc(cc3)C[C@@H](C(=O)O)NC(=O)[C@@H](Cc3ccccc3)NC2=O)cc1` [Compound 90] ([d2Thi][Phe(4-tBu)][dF][Phe(4-NH2)]-OH; linker N-4 via Suc), the IC50 was > 100 µM.

For `COC(=O)[C@@H]1Cc2ccc(cc2)NC(=O)CCC(=O)N[C@H](Cc2cccs2)C(=O)N[C@@H](Cc2ccc(-c3ccccc3)cc2)C(=O)N[C@H](Cc2ccccc2)C(=O)N1` [Compound 192] ([d2Thi][Bip][dF][Phe(4-NH2)]-OMe; linker N-4 via Suc), the IC50 is < 10 µM.
